Data reported in US9181309B1, “Peptide regulation of maize defense responses” (The United States of America, as represented by the …, priority 2011, dated 2015).

Legend:
[1] = test system: defense metabolites in maize leaves; details: in vivo; cited from earlier work
[2] = test system: Aspergillus niger, Trichoderma viride, Rhizopus sp., Penicillium sp., Aspergillus flavus and Fusarium graminearum; assay type: cell-based, fungi isolated from germinating maize kernels; details: for effect on fungal growth: 1 mM in PDA; for growth of fungal pathogens: 10 and 3.3 mM in PDA
[3] = test system: Pseudomonas syringae pv. tomato DC3000 and Xanthomonas campestris pv. vesicatoria; assay type: cell-based
[4] = test system: jasmonic acid and ethylene production in maize leaves; experiment: Phytohormone (JA, ET) production in treated leaves; assay type: in vivo, Zea mays; details: low equivalent quantities of either elicitor
Description: A further embodiment is ZmPEP3 regulated production of defense-related metabolites. The elicitor-induced phytohormones JA and ethylene (ET) function as signals integral to initiation of protective responses against pathogens and herbivores (Howe and Jander, Annu Rev Plant Biol. 59:41, 2008).

Cotesia marginiventris = experiment: Olfactometer assay of parasitoid wasp attraction to pretreated leaves; assay type: in vivo; details: naive C. marginiventris
Description: The generalist parasitoid Cotesia marginiventris attacks many Lepidopteran species including S. exigua and is attracted to herbivory-induced maize volatiles (Turlings et al., Science 250:1251, 1990). Precisely which components are attractive has been difficult to determine, and the wasps respond strongly to unidentified minor components when subjected to gas chromatograph-coupled electroantennography (Gouinguene et al., J Chem Ecol. 31:1023, 2005). To determine whether the ZmPep3-induced blend was attractive to naïve C. marginiventris, olfactometer assays were conducted with leaves pretreated with ZmPep3, Gln-18:3 or water for 16 h. To ensure that any preference was due to elicited plant responses and not to an inherent attraction or repellence to any treatment substance, leaves treated at time of assay were used as controls. […] Thus, ZmPep3-regulated responses are sufficient to generate effective indirect defenses against Lepidopteran herbivores.

[5] = test system: defense metabolites in maize leaves; experiment: Accumulation of defense metabolites within treated leaves (internal pools); assay type: in vivo, Zea mays; details: following treatment
Description: Induced terpene production is vital to anti-herbivore defenses in many plant species (Unsicker et al., Curr Opin Plant Biol. 12:479, 2009; Tholl, Curr Opin Plant Biol. 9:297, 2006; Keeling and Bohlmann, New Phytol 170:657, 2006). […] Expression of genes encoding the relevant biosynthetic enzymes, Anthranilic Acid Methyl Transferase 1 (AAMT1) and Indole-Glycerol Phosphate Lyase (IGL) were induced by both peptide and the insect elicitor ([…]., Plant Physiol 153:1795, 2010; Frey et al., Proc Natl Acad Sci USA. 97:14801, 2000). In addition to proteinaceous defenses, maize benzoxazinoids contribute to direct defenses against both herbivores and pathogens ([…] Agric Food Chem 57:1677, 2009). […] Oikawa et al., Phytochemistry. 56:669, 2001; Huffaker et al., Plant Physiol. 155:1325, 2011). […] It is hypothesized that simultaneous activation of both IGL and BX1 by ZmPep3 results in increased flux through the benzoxazinoid pathway to produce HDMBOA-Glc.

[6] = test system: herbivore defense genes in maize leaves; experiment: Real time qPCR / qRT-PCR of defense and phytohormone biosynthesis genes in treated leaves

Compound: ZmPEP1: previously identified maize plant elicitor peptide VRRRPTTPGRPREGSGGNGGNHH (SEQ ID NO: 1) (Zea mays)
- HDMBOA-Glc induction (literature) [1]: induced

Compound: C=CC(C)(O)CCC=C(C)C (centres unmarked) [linalool]
- effect on fungal growth [2]: reduced
- growth of fungal pathogens [2]: prevented growth
- effect on bacterial (microbial) growth [3]: reduced
- growth of bacterial pathogens [3]: prevented growth

Compound: hexenal
- effect on fungal growth [2]: reduced
- growth of fungal pathogens [2]: prevented growth
- effect on bacterial (microbial) growth [3]: reduced
- growth of bacterial pathogens [3]: prevented growth

Compound: CC/C=C\C[C@H]1C(=O)CC[C@@H]1CC(=O)O [JA, jasmonic acid]
- HDMBOA-Glc induction (literature) [1]: induced

Compound: c1ccc2[nH]ccc2c1 [indole]
- effect on fungal growth [2]: moderate limiting effect
- growth of fungal pathogens [2]: prevented growth
- bacterial growth at the lowest concentration tested [3]: particularly effective at limiting bacterial growth
- growth of bacterial pathogens [3]: prevented growth

Compound: C[C@@H]1[C@H](O)[C@@H](C)/C=C/C=C/C=C/C=C/C=C/C=C/C=C/[C@H](O[C@@H]2O[C@H](C)[C@@H](O)[C@H](N)[C@@H]2O)C[C@@H]2O[C@](O)(C[C@@H](O)C[C@@H](O)[C@H](O)CC[C@@H](O)C[C@@H](O)CC(=O)O[C@H]1C)C[C@H](O)[C@H]2C(=O)O [amphotericin B, reference compound]
- fungal growth on antimycotic-supplemented medium ([2]; three days after inoculation): have not spread from the center well
- bacterial growth on antimycotic-supplemented medium [3]: proliferated unaffected

Compound: CC/C=C\C/C=C\C/C=C\CCCCCCCC(=O)N[C@@H](CCC(N)=O)C(=O)O [Gln-18:3, N-Linolenoyl-L-glutamine, reference compound]
- JA and ET synthesis [4]: elicitation of JA and ET synthesis
- wasp preference for leaves pretreated 16 h vs leaves treated at time of assay (Cotesia marginiventris): did not display a statistically significant preference
- anthranilate and indole in leaves [5]: increased
- BX1 and BX2 expression by qRT-PCR ([6]; 12 h post-treatment): expressed
- expression of genes encoding Terpene Synthases (TPS) 10 and 23 ([6]; equivalent molar concentrations): strongly activate expression
- expression of AAMT1 and IGL genes ([6]; in vivo): induced
- accumulation of transcripts for ACC Oxidase, Allene Oxide Synthase and Allene Oxide Cyclase ([6]; low equivalent quantities of elicitor): significantly increased accumulation of transcripts

Compound: C=CC(C)(O)CCC=C(C)CCC=C(C)C (centres unmarked) [Nerolidol, nerolidol]
- fungal (microbial) growth at any concentration ([2]; 10 mM to 0.3 mM): did not limit microbial growth
- sporulation of all fungi ([2]; all concentrations tested): strong inhibitor of sporulation
- bacterial (microbial) growth at any concentration [3]: did not limit microbial growth
